The target in experiment [1] is human LSD1(172-833) (Homo sapiens (Human), UniProt O60341). In words: Measurement of LSD1 inhibitory activity (time-resolved fluorescence, biotin-histone H3 mono methylated K4 peptide). In kind it is biochemical. The method, boiled down:
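Remaining signal detected by TR-FRET after 60 min with europium anti-histone H3 antibody and streptavidin-XL665 in potassium fluoride/0.1% BSA.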

In experiment [2] the target is MAO-A enzyme (Homo sapiens (Human), UniProt P21397). The experiment can be described thus: Measurement of MAO-A inhibitory activity (MAO-Glo Assay). The format is biochemical.
Experiment [3] concerns the target MAO-B enzyme (Homo sapiens (Human), UniProt P27338). In words: Measurement of MAO-B inhibitory activity (MAO-Glo Assay).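 Further: luminescence read-out, compound preincubated 10 min with enzyme then reacted 60 min at room temperature, inhibition relative to enzyme reaction without compound, blank lacking enzyme and compound.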 The note with it: read-out: MAO-B IC50 value.
Protocol: The MAO-B inhibitory activity evaluation described below followed the protocol of MAO-Glo (registered trademark) Assay of Promega KK.
A test compound dissolved in 4% DMSO was added by 12.5 μL to 25 μL reaction solution (100 mM HEPES (pH 7.5), 5% glycerol, 10% DMSO) containing 400 ng of MAO-B enzyme (Sigma-Aldrich Co. LLC.), and the mixture was reacted at room temperature for 10 min. […] After reaction at room temperature for 60 min, Luciferine detection reagent (Promega KK) (50 μL) was added to terminate the reaction. After reaction at room temperature for 20 min with stirring, the luminescence was measured by Envision (PerkinElmer). The MAO-B inhibitory rate (%) of the test compound was calculated by the following formula. inhibitory rate(%)=(1−(test compound count−blank)÷(control−blank))×100
The count of the MAO-B enzyme reaction mixture under compound non-addition conditions is indicated as control, and the count under compound non-addition and MAO-B enzyme non-addition conditions is indicated as blank.

Among the data in US9751885B2, “Cyclopropanamine compound and use thereof” (Takeda Pharmaceutical Company Limited, priority 2012, dated 2017) are IC50 values, retold here.

Counter-ions that a name gives are not always drawn.

Sequence of MAO-A enzyme (P21397 whole entry): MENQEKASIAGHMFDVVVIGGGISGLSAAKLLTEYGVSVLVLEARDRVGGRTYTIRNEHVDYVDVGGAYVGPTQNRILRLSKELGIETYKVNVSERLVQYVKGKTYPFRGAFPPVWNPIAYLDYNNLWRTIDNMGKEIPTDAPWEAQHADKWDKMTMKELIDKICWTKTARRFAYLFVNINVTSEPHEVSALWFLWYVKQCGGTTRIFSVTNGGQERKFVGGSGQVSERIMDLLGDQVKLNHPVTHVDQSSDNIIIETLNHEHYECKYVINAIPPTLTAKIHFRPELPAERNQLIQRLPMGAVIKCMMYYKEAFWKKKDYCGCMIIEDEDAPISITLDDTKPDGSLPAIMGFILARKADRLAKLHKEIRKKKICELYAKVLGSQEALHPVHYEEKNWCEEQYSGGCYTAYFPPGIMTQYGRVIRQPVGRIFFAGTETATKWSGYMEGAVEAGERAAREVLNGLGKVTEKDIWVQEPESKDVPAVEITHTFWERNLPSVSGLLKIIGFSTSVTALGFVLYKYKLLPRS
Sequence of MAO-B enzyme (P27338 whole entry): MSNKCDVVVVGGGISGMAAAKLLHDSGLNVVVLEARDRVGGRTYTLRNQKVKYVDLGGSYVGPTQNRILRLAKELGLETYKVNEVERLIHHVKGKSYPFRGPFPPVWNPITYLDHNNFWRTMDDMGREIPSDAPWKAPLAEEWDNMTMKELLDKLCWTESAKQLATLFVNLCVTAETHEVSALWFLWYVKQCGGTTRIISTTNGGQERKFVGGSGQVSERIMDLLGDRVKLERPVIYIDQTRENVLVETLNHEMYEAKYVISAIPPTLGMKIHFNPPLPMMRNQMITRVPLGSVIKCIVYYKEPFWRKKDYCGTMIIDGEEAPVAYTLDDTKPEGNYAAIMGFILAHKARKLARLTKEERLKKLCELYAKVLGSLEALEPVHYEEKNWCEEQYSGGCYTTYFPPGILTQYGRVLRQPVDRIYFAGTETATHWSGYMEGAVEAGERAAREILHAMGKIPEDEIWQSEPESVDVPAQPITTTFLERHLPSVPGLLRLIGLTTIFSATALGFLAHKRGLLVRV

Turning to `Cc1ccc(CN[C@@H]2C[C@H]2c2ccc(C(=O)NCc3ccccc3)cc2)s1` (relative stereo) [Example 48, N-benzyl-4-(trans-2-(((5-methyl-2-thienyl)methyl)amino)cyclopropyl)benzamide trifluoroacetate], the figures for the IC50 in experiment [1], in experiment [2] and in experiment [3] were < 0.1 µM, 2.6 µM and > 10 µM, respectively.
The matching figures for `Cc1csc(CN[C@@H]2C[C@H]2c2ccc(C(=O)NCc3ccccc3)cc2)c1` (relative stereo) [Example 49, N-benzyl-4-(trans-2-(((4-methyl-2-thienyl)methyl)amino)cyclopropyl)benzamide trifluoroacetate]: < 0.1 µM, 1.8 µM and > 10 µM.
The matching figures for `N[C@@H]1C[C@H]1c1ccc(C(=O)Nc2ccc(-c3ncccn3)cc2)cc1` (relative stereo) [Example 50, 4-(trans-2-aminocyclopropyl)-N-(4-(pyrimidin-2-yl)phenyl)benzamide dihydrochloride]: < 0.1 µM, 0.2 µM and > 10 µM.
The like results for `Cn1cc(NC(=O)c2ccc([C@@H]3C[C@H]3N)cc2)cn1` (relative stereo) [Example 51, 4-(trans-2-aminocyclopropyl)-N-(1-methyl-1H-pyrazol-4-yl)benzamide dihydrochloride] were, in that order, < 0.1 µM, 0.83 µM and > 10 µM.
Turning to `O=C(Nc1ccc(-c2ncccn2)cc1)c1ccc([C@@H]2C[C@H]2NCC2CC2)cc1` (relative stereo) [Example 52, 4-(trans-2-((cyclopropylmethyl)amino)cyclopropyl)-N-(4-(pyrimidin-2-yl)phenyl)benzamide dihydrochloride], the figures for the 50% inhibitory concentration (IC50) in experiment [1], in experiment [2] and in experiment [3] were < 0.1 µM, > 10 µM and > 10 µM, respectively.
Take `Cn1cc(NC(=O)c2ccc([C@@H]3C[C@H]3NCC3CC3)cc2)cn1` (relative stereo) [Example 53, 4-(trans-2-((cyclopropylmethyl)amino)cyclopropyl)-N-(1-methyl-1H-pyrazol-4-yl)benzamide dihydrochloride]: the IC50 in experiment [1] is < 0.1 µM; in experiment [2], > 10 µM; in experiment [3], > 10 µM.
Turning to `O=C(Nc1cccc(C(F)(F)F)c1)c1ccc([C@@H]2C[C@H]2NC2CCS(=O)(=O)CC2)cc1` (relative stereo) [Example 62, 4-(trans-2-((1,1-dioxidotetrahydro-2H-thiopyran-4-yl)amino)cyclopropyl)-N-(3-(trifluoromethyl)phenyl)benzamide hydrochloride], the values for the half-maximal inhibitory concentration (IC50) in experiment [1], in experiment [2] and in experiment [3] were < 0.1 µM, > 10 µM and 4.8 µM, respectively.
The like results for `CN(C(=O)c1cccc([C@@H]2C[C@H]2NCC2CC2)c1)c1ccccc1` (relative stereo) [Example 80, 3-(trans-2-((cyclopropylmethyl)amino)cyclopropyl)-N-methyl-N-phenylbenzamide hydrochloride] were, in that order, < 0.1 µM, 0.9 µM and > 10 µM.
On to `O=C(Nc1cccc(-c2ncccn2)c1)c1cccc([C@@H]2C[C@H]2NCC2CC2)c1` (relative stereo) [Example 81, 3-(trans-2-((cyclopropylmethyl)amino)cyclopropyl)-N-(3-(pyrimidin-2-yl)phenyl)benzamide dihydrochloride], for which the results for the half-maximal inhibitory concentration (IC50) in experiment [1], in experiment [2] and in experiment [3] were < 0.1 µM, 5.2 µM and > 10 µM, respectively.
The matching figures for `O=C(NC1CCCC1)c1cccc([C@@H]2C[C@H]2NCC2CCOCC2)c1` (relative stereo) [Example 83, N-cyclopentyl-3-(trans-2-((tetrahydro-2H-pyran-4-ylmethyl)amino)cyclopropyl)benzamide hydrochloride]: < 0.1 µM, > 10 µM and > 10 µM.
The like results for `CCn1cc(NC(=O)c2cccc([C@@H]3C[C@H]3NCC3CCOCC3)c2)cn1` (relative stereo) [Example 86, N-(1-ethyl-1H-pyrazol-4-yl)-3-(trans-2-((tetrahydro-2H-pyran-4-ylmethyl)amino)cyclopropyl)benzamide dihydrochloride] were, in that order, < 0.1 µM, > 10 µM and > 10 µM.
The like results for `CC(C)(C)n1cc(NC(=O)c2cccc([C@@H]3C[C@H]3NCC3CCOCC3)c2)cn1` (relative stereo) [Example 89, N-(1-tert-butyl-1H-pyrazol-4-yl)-3-(trans-2-((tetrahydro-2H-pyran-4-ylmethyl)amino)cyclopropyl)benzamide dihydrochloride] were, in that order, < 0.1 µM, > 10 µM and > 10 µM.
Consider `Cc1ncc(NC(=O)c2cccc([C@@H]3C[C@H]3NCC3CCOCC3)c2)s1` (relative stereo) [Example 90, N-(2-methyl-1,3-thiazol-5-yl)-3-(trans-2-((tetrahydro-2H-pyran-4-ylmethyl)amino)cyclopropyl)benzamide dihydrochloride], for which the IC50 in experiment [1] is < 0.1 µM; in experiment [2], > 10 µM; in experiment [3] it was > 10 µM.
With `Cc1cc(NC(=O)c2cccc([C@@H]3C[C@H]3NCC3CCOCC3)c2)on1` (relative stereo) [Example 92, N-(3-methyl-1,2-oxazol-5-yl)-3-(trans-2-((tetrahydro-2H-pyran-4-ylmethyl)amino)cyclopropyl)benzamide hydrochloride], the concentration for half-maximal inhibition (IC50) was < 0.1 µM in experiment [1], > 10 µM in experiment [2] and > 10 µM in experiment [3].
Regarding `O=C(NCCc1ccccc1)c1cccc([C@@H]2C[C@H]2NCC2CC2)c1` (relative stereo) [Example 120, 3-(trans-2-((cyclopropylmethyl)amino)cyclopropyl)-N-(2-phenylethyl) benzamide trifluoroacetate], the IC50 in experiment [1] was < 0.1 µM; in experiment [2], 9.6 µM; in experiment [3], > 10 µM.
The like results for `O=C(Nc1cccc(F)c1)c1cccc([C@@H]2C[C@H]2NCC2CC2)c1` (relative stereo) [Example 122, 3-(trans-2-((cyclopropylmethyl)amino)cyclopropyl)-N-(3-fluorophenyl) benzamide trifluoroacetate] were, in that order, < 0.1 µM, > 10 µM and > 10 µM.
The like results for `O=C(Nc1ccc(OC(F)(F)F)cc1)c1cccc([C@@H]2C[C@H]2NCC2CC2)c1` (relative stereo) [Example 123, 3-(trans-2-((cyclopropylmethyl)amino)cyclopropyl)-N-(4-(trifluoromethoxy)phenyl)benzamide trifluoroacetate] were, in that order, < 0.1 µM, > 10 µM and > 10 µM.
For the compound `CS(=O)(=O)c1ccc(NC(=O)c2cccc([C@@H]3C[C@H]3NCC3CC3)c2)cc1` (relative stereo) [Example 124, 3-(trans-2-((cyclopropylmethyl)amino)cyclopropyl)-N-(4-(methylsulfonyl)phenyl)benzamide trifluoroacetate], the IC50 is < 0.1 µM in experiment [1], > 10 µM in experiment [2] and > 10 µM in experiment [3].
As for `O=C(Nc1ccc(-c2cn3c(n2)SCC3)cc1)c1cccc([C@@H]2C[C@H]2NCC2CC2)c1` (relative stereo) [Example 127, 3-(trans-2-((cyclopropylmethyl)amino)cyclopropyl)-N-(4-(2,3-dihydroimidazo[2,1-b][1,3]thiazol-6-yl)phenyl)benzamide bis(trifluoroacetate)], the IC50 was < 0.1 µM in experiment [1], > 10 µM in experiment [2] and > 10 µM in experiment [3].
As to `O=C(Nc1ccc(Cc2ccccc2)cc1)c1cccc([C@@H]2C[C@H]2NCC2CC2)c1` (relative stereo) [Example 129, N-(4-benzylphenyl)-3-(trans-2-((cyclopropylmethyl)amino)cyclopropyl)benzamide trifluoroacetate], the results for the IC50 in experiment [1], in experiment [2] and in experiment [3] were < 0.1 µM, > 10 µM and > 10 µM, respectively.
Regarding `Cc1cc(C)nc(Sc2cccc(NC(=O)c3cccc([C@@H]4C[C@H]4NCC4CC4)c3)c2)n1` (relative stereo) [Example 132, 3-(trans-2-((cyclopropylmethyl)amino)cyclopropyl)-N-(3-((4,6-dimethylpyrimidin-2-yl)sulfanyl)phenyl)benzamide trifluoroacetate], the figures for the IC50 in experiment [1], in experiment [2] and in experiment [3] were < 0.1 µM, > 10 µM and > 10 µM, respectively.
For the compound `O=C(Nc1ccc(Oc2ccc(F)cc2)nc1)c1cccc([C@@H]2C[C@H]2NCC2CC2)c1` (relative stereo) [Example 137, 3-(trans-2-((cyclopropylmethyl)amino)cyclopropyl)-N-(6-(4-fluorophenoxyl)pyridin-3-yl)benzamide bis(trifluoroacetate)], the figures for the IC50 in experiment [1], in experiment [2] and in experiment [3] were < 0.1 µM, > 10 µM and > 10 µM, respectively.
As to `O=C(Nc1ccc2nccnc2c1)c1cccc([C@@H]2C[C@H]2NCC2CC2)c1` (relative stereo) [Example 143, 3-(trans-2-((cyclopropylmethyl)amino)cyclopropyl)-N-(quinoxalin-6-yl)benzamide bis(trifluoroacetate)], the IC50 was < 0.1 µM in experiment [1], 2.1 µM in experiment [2] and > 10 µM in experiment [3].
The like results for `O=C(Nc1ccc2ncsc2c1)c1cccc([C@@H]2C[C@H]2NCC2CC2)c1` (relative stereo) [Example 144, N-(1,3-benzothiazol-6-yl)-3-(trans-2-((cyclopropylmethyl)amino)cyclopropyl)benzamide trifluoroacetate] were, in that order, < 0.1 µM, > 10 µM and > 10 µM.
